Experiment: solvent given as SMILES

SMILES: CCC1(CC)c2cc(/C=C/c3cc(Br)c(/C=C/c4ccc5c(c4)C(CC)(CC)c4cc(N6c7ccccc7Sc7ccccc76)ccc4-5)cc3Br)ccc2-c2ccc(N3c4ccccc4Sc4ccccc43)cc21
- absorption maximum (in C1CCOC1): 439.91 nm
- absorption maximum (in CC#N): 435.81 nm
- absorption maximum (in CCCCCC): 433.42 nm
- absorption maximum (in Cc1ccccc1): 439.91 nm
- absorption maximum (in ClCCl): 426 nm

SMILES: CCCCN1C(=O)C2=C(c3ccc(-c4ccc5c(c4)C(C)(C)c4ccccc4-5)cc3)[N-]C(=O)C2=C1c1ccc(-c2ccc3c(c2)C(C)(C)c2ccccc2-3)cc1
- absorption maximum (in ClCCl): 594 nm

SMILES: CCCCC(CC)Cn1c2cc(C#N)ccc2c2cc(-c3ccc(N(c4ccccc4)c4ccccc4)cc3)c(C#N)cc21 (stereo not given)
- absorption maximum (in ClCCl): 398 nm

SMILES: CN1c2ccccc2C(O)(c2ccccc2)c2cc([N+](=O)[O-])ccc21 (stereo not given)
- absorption maximum (in C1CCOC1): 392.4 nm
- absorption maximum (in CC#N): 396.9 nm
- absorption maximum (in CCO): 393.7 nm
- absorption maximum (in CO): 396 nm
- absorption maximum (in CS(C)=O): 410 nm
- absorption maximum (in Cc1ccccc1): 381.5 nm

SMILES: COc1cc(OC)c2cc(-c3ccccc3CC#N)c(=O)oc2c1
- absorption maximum (in ClC(Cl)Cl): 342 nm

SMILES: CCCCCCCCC1(CCCCCCCC)c2cc3c(cc2-c2sc(-c4ccc(/C=C5\SC(N6CCCCC6)=NC5=O)c5nsnc45)cc21)C(CCCCCCCC)(CCCCCCCC)c1cc(-c2ccc(/C=C4\SC(N5CCCCC5)=NC4=O)c4nsnc24)sc1-3
- absorption maximum (in ClC(Cl)Cl): 606 nm

SMILES: CCOC(=O)c1c2c3c(ccc(C)c3c3cc4ccccc4cc13)N(C)C2=O
- absorption maximum (in CC#N): 404 nm

SMILES: COC(=O)c1ccc(/N=N/c2cc3c4c(c2)CCCN4CCC3)cc1
- absorption maximum (in CCOC(C)=O): 474 nm

SMILES: N#Cc1ccc(N)c2nonc12
- absorption maximum (in C1COCCO1): 418 nm
- absorption maximum (in CC#N): 421 nm
- absorption maximum (in CCCCCC): 397 nm
- absorption maximum (in CCO): 430 nm
- absorption maximum (in Cc1ccccc1): 409 nm
- absorption maximum (in ClCCl): 407 nm
- absorption maximum (in O): 430 nm

SMILES: COc1ccc(-n2nc(C#N)c(N3CCC(N4CCCCC4)CC3)n2)cc1
- absorption maximum (in CC#N): 325 nm

SMILES: CC1(C)C(/C=C/c2cc3ccc(O)cc3oc2=O)=[N+](CCCS(=O)(=O)[O-])c2ccc(S(=O)(=O)O)cc21
- absorption maximum (in CCO): 630 nm
- absorption maximum (in CS(C)=O): 485 nm
- absorption maximum (in O): 573 nm

SMILES: CCCCn1c2ccccc2c2cc(C#Cc3ccc4ccc5cccc6ccc3c4c56)ccc21
- absorption maximum (in ClCCl): 402 nm

SMILES: N#Cc1nc(-n2c3ccccc3c3ccccc32)cc(-n2c3ccccc3c3ccccc32)n1
- absorption maximum (in Cc1ccccc1): 371 nm

SMILES: COC(=O)C1CCN(c2ccc3c(N4CCCCC4)c4ccc(=[N+]5CCC(C(=O)OC)CC5)cc-4oc3c2)CC1 (stereo not given)
- absorption maximum (in ClCCl): 482 nm

SMILES: CC1(C)CC[N+]2=c3c(cc4c(c31)Oc1cc3c(cc1C=4c1ccccc1C(=O)O)C(c1ccccc1C(=O)O)=c1cc4c5c(c1O3)C(C)(C)CC[N+]=5CCC4)CCC2
- absorption maximum (in ClC(Cl)Cl): 611 nm

SMILES: Cc1ccc2nc3[nH]c(=O)[nH]c(=O)c3nc2c1C
- absorption maximum (in CC#N): 388 nm

SMILES: Nc1cccc2ncccc12
- absorption maximum (in CC#N): 340 nm
- absorption maximum (in O): 333 nm

SMILES: CC(C)=O
- absorption maximum (in CCCCCC): 279 nm

SMILES: O=[N+]([O-])c1ccc(O)cc1
- absorption maximum (in CO): 309 nm
- absorption maximum (in O): 401 nm

SMILES: CCCCN(CCCC)c1ccc(/C=C/c2ccc3nc(/C=C/c4ccc(N(C)C)cc4)c(=O)n(CCC)c3c2)cc1
- absorption maximum (in C1COCCO1): 481 nm
- absorption maximum (in CC#N): 488 nm
- absorption maximum (in ClCCl): 494 nm

SMILES: CCCCn1c(-c2ccc(-c3nnc(-c4cccs4)o3)cc2)nc(-c2ccccc2)c1-c1ccccc1
- absorption maximum (in ClCCl): 340 nm

SMILES: c1ccc(/C(=C(\c2ccccc2)c2cc(-c3ccc(-c4ccccc4)cc3)ccc2-c2ccc(-c3ccccc3)cc2)c2cc(-c3ccc(-c4ccccc4)cc3)ccc2-c2ccc(-c3ccccc3)cc2)cc1
- absorption maximum (in C1CCOC1): 302 nm

SMILES: COC(=O)C(NC(=O)OC(C)(C)C)c1ccc2oc(-c3ccc(C#N)cc3)nc2c1 (stereo not given)
- absorption maximum (in CC1CCCCC1): 337 nm
- absorption maximum (in CC#N): 333 nm
- absorption maximum (in CO): 317 nm

SMILES: CN(C)c1ccc(-c2nc3cccnc3[nH]2)cc1
- absorption maximum (in C1CCCCC1): 351 nm
- absorption maximum (in CC#N): 346 nm

SMILES: Cn1c(=O)nc2n(C)c3ccccc3nc-2c1=O
- absorption maximum (in CC1CCCO1): 460 nm
- absorption maximum (in CC#N): 437 nm
